Columns and labels:
[1] = system: T47D cells; experiment: Cellular growth inhibition assay for T47D cells, CellTiter-Glo; type: cell-based, human; conditions: Homo sapiens, T47D, 72 h, 72 hours treatment, CellTiter-Glo 2.0 cell viability
Procedure, shortened: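 Growth inhibition as GI50, fitted with four parameters to CellTiter-Glo luminescence after 72 h of compound exposure (0.5% DMSO). Cells were T47D, grown in insulin-supplemented (0.2 units/mL) DMEM with 10% FBS and treated one day post-seeding.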

[2] = system: T-Rex 293 cell line SC3 cells having increased expression of androgen receptor protein due to exposure to doxycycline; experiment: Cellular growth inhibition, T-Rex 293 SC3 cells with doxycycline (androgen receptor induced), CellTiter-Glo; type: cell-based; conditions: 72 h, T-Rex 293 SC3 cells with 10 ng/mL doxycycline (increased androgen receptor expression)
Procedure, shortened: (§1)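 GI50 came from a four-parameter fit of CellTiter-Glo 2.0 luminescence after 72 h compound exposure (0.5% DMSO, 37 °C), dosing 24 h post-seeding. SC3 clone cells (2500/well), transfected with wild-type androgen receptor, grew in charcoal-stripped serum medium lacking phenol red, induced with 10 ng/mL doxycycline or left uninduced.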

[3] = system: T-Rex 293 cell line SC3 cells lacking increased expression of androgen receptor protein; experiment: Cellular growth inhibition, T-Rex 293 SC3 cells without doxycycline, CellTiter-Glo; type: cell-based; conditions: 72 h, T-Rex 293 SC3 cells not exposed to doxycycline, CellTiter-Glo 2.0
Procedure, shortened: as §1

SMILES	GI50 [1]	GI50 [2]	GI50 [3]
CCNC(=O)C[C@@H]1N=C(c2ccc(CCCC3CCN(c4ncc(C(=O)N[C@H]5C(C)(C)[C@H](Oc6ccc(C#N)c(Cl)c6)C5(C)C)cn4)CC3)cc2)c2c(sc(C)c2C)-n2c(C)nnc21 [Compound I-95]	< 500 nM	< 500 nM	< 500 nM
Cc1sc2c(c1C)C(c1ccc(C#CCN3CCN(c4ncc(C(=O)N[C@H]5C(C)(C)[C@H](Oc6ccc(C#N)c(Cl)c6)C5(C)C)cn4)CC3)cc1)=N[C@@H](CC(=O)OC(C)(C)C)c1nnc(C)n1-2 [Compound I-55]	> 3000 nM	< 500 nM	> 3000 nM
CCNC(=O)C[C@@H]1N=C(c2ccc(N3CCN(CC4CCN(c5ncc(C(=O)N[C@H]6C(C)(C)[C@H](Oc7ccc(C#N)c(Cl)c7)C6(C)C)cn5)CC4)CC3)cc2)c2c(sc(C)c2C)-n2c(C)nnc21 [Compound I-105, N-[3-(3-chloro-4-cyano-phenoxy)-2,2,4,4-tetramethyl-cyclobutyl]-2-[4-[[4-[4-[(9S)-9-[2-(ethylamino)-2-oxo-ethyl]-4,5,13-trimethyl-3-thia-1,8,11,12-tetrazatricyclo[8.3.0.02,6]trideca-2(6),4,7,10,12-pentaen-7-yl]phenyl]piperazin-1-yl]methyl]-1-piperidyl]pyrimidine-5-carboxamide]	< 500 nM	< 500 nM	< 500 nM
Cc1sc2c(c1C)C(c1ccc(CCCOC3CCN(c4ncc(C(=O)N[C@H]5C(C)(C)[C@H](Oc6ccc(C#N)c(Cl)c6)C5(C)C)cn4)CC3)cc1)=N[C@@H](CC(=O)NC(C)C)c1nnc(C)n1-2 [Compound I-100]	500 to 1500 nM	< 500 nM	> 3000 nM
Cc1sc2c(c1C)C(c1ccc(CCCOC3CCN(c4ncc(C(=O)N[C@H]5C(C)(C)[C@H](Oc6ccc(C#N)c(Cl)c6)C5(C)C)cn4)CC3)cc1)=N[C@@H](C)c1nnc(C)n1-2 [Compound I-228, N-[3-(3-chloro-4-cyano-phenoxy)-2,2,4,4-tetramethyl-cyclobutyl]-2-[4-[3-[4-[(9S)-4,5,9,13-tetramethyl-3-thia-1,8,11,12-tetrazatricyclo [8.3.0.02,6]trideca-2(6),4,7,10,12-pentaen-7-yl]phenyl]propoxy]-1-piperidyl]pyrimidine-5-carboxamide]	< 500 nM	< 500 nM	500 to 1500 nM
CCNC(=O)C[C@@H]1N=C(c2ccc(N3CC(N(C)C4CN(c5ncc(C(=O)N[C@H]6C(C)(C)[C@H](Oc7ccc(C#N)c(Cl)c7)C6(C)C)cn5)C4)C3)cc2)c2c(sc(C)c2C)-n2c(C)nnc21 [Compound I-121]	< 500 nM	< 500 nM	500 to 1500 nM
Cc1sc2c(c1C)C(c1ccc(CC3CN(CC4CCN(c5ncc(C(=O)N[C@H]6C(C)(C)[C@H](Oc7ccc(C#N)c(Cl)c7)C6(C)C)cn5)CC4)C3)cc1)=N[C@@H](Cc1ncco1)c1nnc(C)n1-2 [Compound I-153]	< 500 nM	< 500 nM	500 to 1500 nM
Cc1sc2c(c1C)C(c1ccc(O[C@H]3CC[C@@]4(CCCN(c5ncc(C(=O)N[C@H]6C(C)(C)[C@H](Oc7ccc(C#N)c(Cl)c7)C6(C)C)cn5)C4)CC3)cc1)=N[C@@H](Cc1ncco1)c1nnc(C)n1-2 [Compound I-172]	< 500 nM	< 500 nM	500 to 1500 nM
Cc1sc2c(c1C)C(c1ccc(N3CC(CC4CCN(c5ncc(C(=O)N[C@H]6C(C)(C)[C@H](Oc7ccc(C#N)c(Cl)c7)C6(C)C)cn5)CC4)C3)cc1)=N[C@@H](C)c1nnc(C)n1-2 [Compound I-270]	< 500 nM	< 500 nM	> 3000 nM
CCNC(=O)C[C@@H]1N=C(c2ccc(OCCOC3CCN(c4ncc(C(=O)N[C@H]5C(C)(C)[C@H](Oc6ccc(C#N)c(Cl)c6)C5(C)C)cn4)CC3)c(F)c2)c2c(sc(C)c2C)-n2c(C)nnc21 [Compound I-76]	500 to 1500 nM	< 500 nM	500 to 1500 nM
Cc1sc2c(c1C)C(c1ccc(OCCOC3CCN(c4ncc(C(=O)N[C@H]5C(C)(C)[C@H](Oc6ccc(C#N)c(Cl)c6)C5(C)C)cn4)CC3)cc1)=N[C@@H](CC(=O)OC(C)(C)C)c1nnc(C)n1-2 [Compound I-235, tert-butyl 2-((S)-4-(4-(2-((1-(5-(((1r,3r)-3-(3-chloro-4-cyanophenoxy)-2,2,4,4-tetramethylcyclobutyl)carbamoyl)pyrimidin-2-yl)piperidin-4-yl)oxy)ethoxy)phenyl)-2,3,9-trimethyl-6H-thieno[3,2-f][1,2,4]triazolo[4,3-a][1,4]diazepin-6-yl)acetate]	< 500 nM	< 500 nM	> 3000 nM
CCNC(=O)C[C@@H]1N=C(c2ccc(OCCCC#Cc3ncc(C(=O)N[C@H]4C(C)(C)[C@H](Oc5ccc(C#N)c(Cl)c5)C4(C)C)cn3)cc2)c2c(sc(C)c2C)-n2c(C)nnc21 [Compound I-83]	500 to 1500 nM	< 500 nM	500 to 1500 nM
CCN(C)C(=O)C[C@@H]1N=C(c2ccc(OCCOC3CCN(c4ncc(C(=O)N[C@H]5C(C)(C)[C@H](Oc6ccc(C#N)c(Cl)c6)C5(C)C)cn4)CC3)cc2)c2c(sc(C)c2C)-n2c(C)nnc21 [Compound I-66]	500 to 1500 nM	< 500 nM	< 500 nM
Cc1sc2c(c1C)C(c1ccc(CC3CC(C4CCN(c5ncc(C(=O)N[C@H]6C(C)(C)[C@H](Oc7ccc(C#N)c(Cl)c7)C6(C)C)cn5)CC4)C3)cc1)=NC(Cc1ncco1)c1nnc(C)n1-2 (stereo partly drawn) [Compound I-136]	< 500 nM	< 500 nM	> 3000 nM
CCNC(=O)C[C@@H]1N=C(c2ccc(OC3CCN(c4ncc(C(=O)N[C@H]5C(C)(C)[C@H](Oc6ccc(C#N)c(Cl)c6)C5(C)C)cn4)CC3)cc2)c2c(sc(C)c2C)-n2c(C)nnc21 [Compound I-61]	500 to 1500 nM	< 500 nM	1500 to 3000 nM
Cc1sc2c(c1C)C(c1ccc(C#CC3CC4(CCN(c5ncc(C(=O)N[C@H]6C(C)(C)[C@H](Oc7ccc(C#N)c(Cl)c7)C6(C)C)cn5)CC4)C3)cc1)=N[C@@H](Cc1ncco1)c1nnc(C)n1-2 [Compound I-267]	< 500 nM	< 500 nM	< 500 nM
CCNC(=O)C[C@@H]1N=C(c2ccc(OCCOC3CCN(c4ncc(C(=O)N[C@H]5C(C)(C)[C@H](Oc6ccc(C#N)c(Cl)c6)C5(C)C)cn4)CC3)c(F)c2F)c2c(sc(C)c2C)-n2c(C)nnc21 [Compound I-73]	500 to 1500 nM	< 500 nM	500 to 1500 nM
CCNC(=O)C[C@@H]1N=C(c2ccc(N3CCC(N(C)C4CN(c5ncc(C(=O)N[C@H]6C(C)(C)[C@H](Oc7ccc(C#N)c(Cl)c7)C6(C)C)cn5)C4)CC3)cc2)c2c(sc(C)c2C)-n2c(C)nnc21 [Compound I-123]	< 500 nM	< 500 nM	500 to 1500 nM
Cc1sc2c(c1C)C(c1ccc(OCCOC3CCN(c4ncc(C(=O)N[C@H]5C(C)(C)[C@H](Oc6ccc(C#N)c(Cl)c6)C5(C)C)cn4)CC3)cc1)=N[C@@H](CC(=O)O)c1nnc(C)n1-2 [Compound I-38]	500 to 1500 nM	500 to 1500 nM	> 3000 nM
Cc1sc2c(c1C)C(c1ccc(N3CC(C4CCN(c5ncc(C(=O)N[C@H]6C(C)(C)[C@H](Oc7ccc(C#N)c(Cl)c7)C6(C)C)cn5)CC4)C3)cc1)=N[C@@H](C)c1nnc(C)n1-2 [Compound I-271]	500 to 1500 nM	< 500 nM	> 3000 nM
Cc1sc2c(c1C)C(c1ccc(Cl)cc1)=N[C@@H](CC(=O)NCCOCCOCCOC1CCN(c3ncc(C(=O)N[C@H]4C(C)(C)[C@H](Oc5ccc(C#N)c(Cl)c5)C4(C)C)cn3)CC1)c1nnc(C)n1-2 [Compound I-7]	< 500 nM	< 500 nM	500 to 1500 nM

Reference: patent US20260062422A1 (Halda Therapeutics OpCo, Inc., priority 2022, published 2026)
